Experimental data from ChEMBL document CHEMBL4308882, “Synthesis, biological evaluation and molecular dynamic simulations of novel Benzofuran-tetrazole derivatives as potential agents against Alzheimer's disease” (2019).
Active and inactive are the calls of the source. No cut-off for these calls is given here.

Tests used:
Caenorhabditis elegans [1] = assay: Protection against amyloid beta aggregation-induced paralysis in Caenorhabditis elegans CL4176 harboring temperature-inducible human amyloid beta transgene assessed as inhibition of paralysis at 1 mM pretreated for 48 hrs at 15 degC followed by heat stress stimulation to 25 degC for 35 hrs relative to control; format: functional
Caenorhabditis elegans [2] = assay: Antialzheimer activity in Caenorhabditis elegans CL4176 harboring temperature-inducible human amyloid beta transgene assessed as reduction in amyloid beta aggregation at 1 mM pretreated for 48 hrs at 15 degC followed by heat stress stimulation to 25 degC for 35 hrs by thioflavin-s staining based microscopic analysis; format: functional, organism-based
Caenorhabditis elegans [3] = assay: Antialzheimer activity in Caenorhabditis elegans […] harboring temperature-inducible human amyloid beta transgene assessed as reduction in AChE level at 1 mM pretreated for 48 hrs at 15 degC followed by heat stress stimulation to 25 degC for 35 hrs by amplex red assay; format: functional, organism-based

SMILES	inhibition at 1000 µM (Caenorhabditis elegans [1]) [%]	inhibition (Caenorhabditis elegans [2])	Activity (Caenorhabditis elegans [3])
CC(C)(C)n1nnnc1C(Nc1ccc(C(F)(F)F)c(Br)c1)c1cn(-c2ccccc2)nc1-c1cc2ccccc2o1 (stereo unspecified)	63.8	Active	
Cc1ccc(NC(c2cn(-c3ccccc3)nc2-c2cc3ccccc3o2)c2nnnn2C(C)(C)C)cc1F (stereo unspecified)	45.4	Active	Active
Cc1ccc(NC(c2cn(-c3ccc(F)cc3)nc2-c2cc3ccccc3o2)c2nnnn2C(C)(C)C)cc1 (stereo unspecified)	42.1	Active	
Cc1ccc(NC(c2cn(-c3ccc(Cl)cc3)nc2-c2oc3ccccc3c2C)c2nnnn2C(C)(C)C)cc1 (stereo unspecified)	46.7	Active	Active
CC(C)(C)n1nnnc1C(Nc1ccc(F)cc1)c1cn(-c2ccccc2)nc1-c1cc2ccccc2o1 (stereo unspecified)	56.5	Active	Active
COc1ccc(NC(c2cn(-c3ccccc3)nc2-c2oc3ccccc3c2C)c2nnnn2C(C)(C)C)cc1 (stereo unspecified)	67.1	Active	Active
